SMILES strings stand for the structures. Calls of active or inactive are those of the source. The calls are words filed in the database; no cut-off is given here.

For test [1], the system named is Escherichia coli. In words: Antibacterial activity against Escherichia coli MTCC 739 at 100 ug/ml by cup-plate method. Format: functional. The conditions noted are these: read-out: DIZ.
The test system of test [2] is Escherichia coli. In words: Antibacterial activity against Escherichia coli MTCC 739 at 50 ug/ml by cup-plate method. Format: functional. As to conditions: read-out: DIZ.
For test [3], the system named is Pseudomonas aeruginosa. Kind of test: Antibacterial activity against Pseudomonas aeruginosa MTCC 2453 at 300 ug/ml by cup-plate method. Format: functional. The conditions noted are these: read-out: DIZ.
Test [4] relates to Pseudomonas aeruginosa. In words: Antibacterial activity against Pseudomonas aeruginosa MTCC 2453 at 100 ug/ml by cup-plate method. Format: functional. The conditions noted are these: read-out: DIZ.
For test [5], the system named is Pseudomonas aeruginosa. In words: Antibacterial activity against Pseudomonas aeruginosa MTCC 2453 at 200 ug/ml by cup-plate method. The format is functional. As to conditions: read-out: DIZ.
For test [6], the system named is Pseudomonas aeruginosa. Kind of test: Antibacterial activity against Pseudomonas aeruginosa MTCC 2453 at 50 ug/ml by cup-plate method. The conditions noted are these: read-out: DIZ. Format: functional.
The subject of test [7] is Bacillus subtilis. Kind of test: Antibacterial activity against Bacillus subtilis MTCC 121 at 300 ug/ml by cup plate method. The format is functional. The conditions noted are these: read-out: DIZ.
The test system of test [8] is Bacillus subtilis. In words: Antibacterial activity against Bacillus subtilis MTCC 121 at 200 ug/ml by cup plate method. As to conditions: read-out: DIZ. The format is functional.
In test [9] the test system is Bacillus subtilis. In words: Antibacterial activity against Bacillus subtilis MTCC 121 at 50 ug/ml by cup plate method. The conditions noted are these: read-out: DIZ. The format is functional.
Test [10] relates to Bacillus subtilis. Kind of test: Antibacterial activity against Bacillus subtilis MTCC 121 at 100 ug/ml by cup plate method. Format: functional. The conditions noted are these: read-out: DIZ.
Test [11] relates to Staphylococcus aureus. Kind of test: Antibacterial activity against Staphylococcus aureus MTCC 96 at 300 ug/ml by cup-plate method. Format: functional. As to conditions: read-out: DIZ.
Test [12] deals with Staphylococcus aureus. Kind of test: Antibacterial activity against Staphylococcus aureus MTCC 96 at 200 ug/ml by cup-plate method. The format is functional. The conditions noted are these: read-out: DIZ.
Test [13] concerns Staphylococcus aureus. Kind of test: Antibacterial activity against Staphylococcus aureus MTCC 96 at 100 ug/ml by cup-plate method. Format: functional. As to conditions: read-out: DIZ.
The subject of test [14] is Staphylococcus aureus. In words: Antibacterial activity against Staphylococcus aureus MTCC 96 at 50 ug/ml by cup-plate method. Format: functional. As to conditions: read-out: DIZ.
In test [15] the test system is Escherichia coli. In words: Antibacterial activity against Escherichia coli MTCC 739 by cup-plate method. The format is functional, organism-based.
In test [16] the test system is Pseudomonas aeruginosa. In words: Antibacterial activity against Pseudomonas aeruginosa MTCC 2453 by cup-plate method. Format: functional, organism-based.
Test [17] concerns Bacillus subtilis. Kind of test: Antibacterial activity against Bacillus subtilis MTCC 121 by cup plate method. Format: functional, organism-based.
Test [18] relates to Staphylococcus aureus. In words: Antibacterial activity against Staphylococcus aureus MTCC 96 by cup-plate method. Format: functional, organism-based.
Another test relates to Candida albicans. In words: Antifungal activity against Candida albicans MTCC 227 at 50 to 300 ug/ml by cup-plate method. Format: functional, organism-based.
Test [19] has as its system Escherichia coli. Kind of test: Antibacterial activity against Escherichia coli MTCC 739 at 300 ug/ml by cup-plate method. As to conditions: read-out: DIZ. The format is functional.
In test [20] the test system is Escherichia coli. In words: Antibacterial activity against Escherichia coli MTCC 739 at 200 ug/ml by cup-plate method. The format is functional. As to conditions: read-out: DIZ.

In the case of `O=C1N/C(=N\c2cccc(Cl)c2)S/C1=C\c1cccc([N+](=O)[O-])c1`, the zone of inhibition at 100 µg/mL amounted to 7 mm in the test with Escherichia coli [1], 8 mm in the test on Pseudomonas aeruginosa [4], 9 mm in the test on Bacillus subtilis [10] and 9 mm in the test on Staphylococcus aureus [13]. Further, the zone of inhibition at 50 µg/mL with Escherichia coli [2] stood at 7 mm; in the test with Pseudomonas aeruginosa [6] it was 8 mm; with Bacillus subtilis [9], 8 mm; with Staphylococcus aureus [14], 8 mm. The zone of inhibition at 300 µg/mL in the test with Pseudomonas aeruginosa [3] was found to be 9 mm; in the test with Bacillus subtilis [7], 10 mm; in the test on Staphylococcus aureus [11], 10 mm; in the test on Escherichia coli [19], 8 mm. For the same compound, the zone of inhibition at 200 µg/mL with Pseudomonas aeruginosa [5] amounted to 9 mm; in the test on Bacillus subtilis [8] it was 9 mm; in the test on Staphylococcus aureus [12], 9 mm; in the test with Escherichia coli [20], 8 mm. The Activity entry with Escherichia coli [15], in the test on Pseudomonas aeruginosa [16], with Bacillus subtilis [17] and with Staphylococcus aureus [18] was “Dose-dependent effect” throughout. For the same compound, the outcome with Candida albicans was inactive.

In the case of `COc1cc(/C=C2\S/C(=N/c3cccc(Cl)c3)NC2=O)ccc1O`, the zone of inhibition at 100 µg/mL in the test on Escherichia coli [1] was determined as 8 mm; in the test on Pseudomonas aeruginosa [4], 8 mm; with Bacillus subtilis [10], 8 mm; in the test with Staphylococcus aureus [13] it was 7 mm. Besides, the zone of inhibition at 50 µg/mL worked out at 7 mm in the test on Escherichia coli [2], 6 mm with Pseudomonas aeruginosa [6], 7 mm in the test on Bacillus subtilis [9] and 6 mm in the test on Staphylococcus aureus [14]. The zone of inhibition at 300 µg/mL in the test on Pseudomonas aeruginosa [3] turned out to be 9 mm; in the test on Bacillus subtilis [7], 9 mm; in the test on Staphylococcus aureus [11] it was 8 mm; in the test on Escherichia coli [19], 9 mm. Moreover, the zone of inhibition at 200 µg/mL turned out to be 9 mm with Pseudomonas aeruginosa [5], 8 mm in the test with Bacillus subtilis [8], 8 mm with Staphylococcus aureus [12] and 9 mm with Escherichia coli [20]. The Activity result in the test on Escherichia coli [15], in the test with Pseudomonas aeruginosa [16], with Bacillus subtilis [17] and with Staphylococcus aureus [18] was “Dose-dependent effect” throughout. In the test with Candida albicans, the outcome was inactive.

On to `O=C1N/C(=N\c2ccc(F)c(Cl)c2)S/C1=C\c1ccccc1Cl`, for which the zone of inhibition at 100 µg/mL in the test with Escherichia coli [1] is 8 mm; in the test with Pseudomonas aeruginosa [4] it was 10 mm; in the test on Bacillus subtilis [10] it was 12 mm; in the test with Staphylococcus aureus [13], 11 mm. Also, the zone of inhibition at 50 µg/mL in the test on Escherichia coli [2] amounted to 8 mm; in the test on Pseudomonas aeruginosa [6], 10 mm; with Bacillus subtilis [9], 10 mm; in the test with Staphylococcus aureus [14], 10 mm. Also, the zone of inhibition at 300 µg/mL in the test with Pseudomonas aeruginosa [3] was 12 mm; with Bacillus subtilis [7], 14 mm; in the test on Staphylococcus aureus [11], 14 mm; with Escherichia coli [19] it was 10 mm. Further, the zone of inhibition at 200 µg/mL was found to be 12 mm in the test with Pseudomonas aeruginosa [5], 14 mm in the test on Bacillus subtilis [8], 12 mm in the test on Staphylococcus aureus [12] and 9 mm in the test with Escherichia coli [20]. Besides, the Activity entry in the test on Escherichia coli [15], in the test on Pseudomonas aeruginosa [16], in the test on Bacillus subtilis [17] and in the test on Staphylococcus aureus [18] was “Dose-dependent effect” throughout. In addition, in the test on Candida albicans, the result was inactive.

Consider `O=C1N/C(=N\c2ccc(F)c(Cl)c2)S/C1=C\c1ccc(Cl)cc1`, for which the zone of inhibition at 100 µg/mL stood at 12 mm in the test with Escherichia coli [1], 9 mm in the test with Pseudomonas aeruginosa [4], 10 mm in the test on Bacillus subtilis [10] and 12 mm in the test with Staphylococcus aureus [13]. Further, the zone of inhibition at 50 µg/mL in the test with Escherichia coli [2] worked out at 9 mm; in the test with Pseudomonas aeruginosa [6], 8 mm; in the test with Bacillus subtilis [9], 8 mm; in the test with Staphylococcus aureus [14], 10 mm. In addition, the zone of inhibition at 300 µg/mL came to 12 mm in the test with Pseudomonas aeruginosa [3], 13 mm in the test on Bacillus subtilis [7], 14 mm in the test with Staphylococcus aureus [11] and 12 mm with Escherichia coli [19]. Also, the zone of inhibition at 200 µg/mL with Pseudomonas aeruginosa [5] stood at 11 mm; in the test on Bacillus subtilis [8], 11 mm; with Staphylococcus aureus [12] it was 12 mm; in the test on Escherichia coli [20] it was 12 mm. Moreover, the Activity result with Escherichia coli [15], in the test with Pseudomonas aeruginosa [16], with Bacillus subtilis [17] and in the test with Staphylococcus aureus [18] was “Dose-dependent effect” in each case. Also, the result with Candida albicans was inactive.

As for `O=C1N/C(=N\c2ccc(Cl)cc2)S/C1=C\c1ccccc1Cl`, the zone of inhibition at 100 µg/mL came to 9 mm with Escherichia coli [1], 9 mm in the test with Pseudomonas aeruginosa [4], 8 mm with Bacillus subtilis [10] and 8 mm in the test on Staphylococcus aureus [13]. For the same compound, the zone of inhibition at 50 µg/mL in the test on Escherichia coli [2] is 9 mm; in the test with Pseudomonas aeruginosa [6], 9 mm; with Bacillus subtilis [9], 8 mm; in the test with Staphylococcus aureus [14] it was 8 mm. Moreover, the zone of inhibition at 300 µg/mL in the test with Pseudomonas aeruginosa [3] is 9 mm; with Bacillus subtilis [7], 10 mm; in the test on Staphylococcus aureus [11] it was 10 mm; in the test with Escherichia coli [19], 9 mm. The zone of inhibition at 200 µg/mL in the test with Pseudomonas aeruginosa [5] was determined as 9 mm; in the test with Bacillus subtilis [8], 9 mm; in the test with Staphylococcus aureus [12] it was 9 mm; with Escherichia coli [20], 10 mm. Also, the Activity entry with Escherichia coli [15], in the test on Pseudomonas aeruginosa [16], in the test with Bacillus subtilis [17] and in the test with Staphylococcus aureus [18] was “Dose-dependent effect” in each case. Further, the outcome with Candida albicans was inactive.

With `O=C1N/C(=N\c2cccc(Cl)c2)S/C1=C\c1ccccc1[N+](=O)[O-]`, the zone of inhibition at 100 µg/mL in the test with Escherichia coli [1] turned out to be 8 mm; in the test with Pseudomonas aeruginosa [4], 8 mm; in the test with Bacillus subtilis [10], 9 mm; in the test with Staphylococcus aureus [13] it was 9 mm. The zone of inhibition at 50 µg/mL turned out to be 6 mm with Escherichia coli [2], 7 mm in the test with Pseudomonas aeruginosa [6], 9 mm with Bacillus subtilis [9] and 8 mm in the test on Staphylococcus aureus [14]. Besides, the zone of inhibition at 300 µg/mL in the test with Pseudomonas aeruginosa [3] turned out to be 9 mm; in the test on Bacillus subtilis [7], 10 mm; in the test on Staphylococcus aureus [11], 10 mm; in the test with Escherichia coli [19] it was 9 mm. The zone of inhibition at 200 µg/mL in the test on Pseudomonas aeruginosa [5] came out at 9 mm; in the test with Bacillus subtilis [8], 9 mm; in the test with Staphylococcus aureus [12] it was 10 mm; in the test on Escherichia coli [20], 9 mm. Besides, the Activity entry with Escherichia coli [15], in the test with Pseudomonas aeruginosa [16], in the test on Bacillus subtilis [17] and in the test on Staphylococcus aureus [18] was “Dose-dependent effect” throughout. In the test with Candida albicans, the result was inactive.
